We go through two compounds from patent publication US12137687B2, “Method for inducing acquired resistance in a plant” (HEINRICH HEINE UNIVERSITAET DUESSELDORF, priority 2017, dated 2024).

Assay [1] concerns Pseudomonas syringae pv maculicola ES4326 (Psm lux). The class given is in vivo.
The subject of assay [2] is Hyaloperonospora arabidopsidis (Hpa) isolate Noco2. Description: Arabidopsis thaliana resistance to Hpa after Pip/NHP pre-treatment (symptoms, Trypan blue microscopy). It is filed as in vivo. The note with it: for symptomology of leaves (photographs): 7 days after inoculation; for disease development in the SA-deficient mutant: sid2 mutant.
Assay [3] has as its system Pseudomonas syringae pv. tabaci (DSM 1856). Briefly: Tobacco (Nicotiana tabacum cv Xanthi) resistance to Pseudomonas tabaci after soil-applied Pip/NHP. As to conditions: for disease symptoms (yellowing and wilting) of infiltrated 1° leaves: tobacco 4-leaf stage, 40 ml of 1 mM (40 μmol) via soil 1 d prior to inoculation, 48 h after infection.
Procedure: Plant pots with tobacco at the 4-leaf stage (BBCH growth stage 1004) were supplied with either 40 ml of H2O (mock-treatment; left) or 40 ml of 1 mM Pip or NHP (=40 μmol) 1 d prior to inoculation with a suspension (OD600=0.005, O/N-culture grown at 18° C.) of Pseudomonas tabaci via pressure infiltration. […] Infiltrated 1° leaves from representative plants were cut and photographed 48 h after the initial infection.
[4] abbreviates: 1° leaves pressure-infiltrated with 1 mM NHP 24 h before inoculation.

Where two headings read alike, the source gives them in different places.

Take `O=C(O)C1CCCCN1O` (stereo not shown) [NHP, 1-hydroxypiperidine-2-carboxylic acid]: the “reduction of bacterial numbers, 2° leaves inoculated (systemic)” value in assay [1] (setting [4]) is reported as “more than 15 fold”. Besides, the “reduction of bacterial numbers, Psm lux infiltrated in the pre-treated 1° leaves (local)” value in assay [1] (setting [4]) is reported as “about 8 fold”. Further, the “Resistance effect after NHP pre-treatment” value in assay [1] (Arabidopsis thaliana, Pseudomonas syringae) is listed as “Yes”; in assay [2] (Arabidopsis thaliana, Hyaloperonospora arabidopsidis) it was “Yes”; in assay [3] (Nicotiana tabacum cv. Xanthi, Pseudomonas syringae pv. tabaci (DSM 1856)) it was “Yes”. The “attenuation of Psm lux growth” value in assay [1] (Col-0, ald1, and fmo1 (all genotypes), 10 μmol via soil 1 d before inoculation, 60 hpi) is “at least one order of magnitude”. Moreover, the chlorotic symptom development result in assay [1] (Col-0, ald1, and fmo1, 10 μmol via soil, 72 hpi) is reported as “lack of the chlorotic symptom development”. In addition, the “reduction in bacterial numbers compared to mock-treated plants” value in assay [1] (Col-0, 10 μmol NHP via soil 1 day before infection, 54 h post inoculation) is “about 9 fold”; in assay [1] (Col-0, 10 μmol NHP via soil 3 days before infection, 54 h post inoculation), “about 6 fold”; in assay [1] (Col-0, 10 μmol NHP via soil 7 days before infection, 54 h post inoculation) it was “about 3 fold”. Moreover, the “further reduction of bacterial growth compared to plants treated with 10 μmol of NHP” value in assay [1] (Col-0, 100 μmol NHP per pot via soil, 54 h post inoculation) came to 2 fold. In addition, the “reduction of bacterial numbers compared to control plants” value in assay [1] (Col-0, 0.1 mM NHP (1 μmol/pot) via soil 24 h prior to Psm lux, 54 h post inoculation) is “about 2 fold”. Moreover, in assay [1] (Col-0, 10 mM NHP (100 μmol per pot) via soil 24 h prior to Psm lux, 54 h post inoculation), the “reduction of bacterial numbers compared to mock-treated plants” value is “about 20 fold”. For the same compound, in assay [1] (Col-0, 10 ml of 1 mM NHP (10 μmol per pot) via soil 24 h prior to Psm lux, 54 h post inoculation), the “lower levels of bacteria in leaves compared to control plants” value is recorded as “about 11 fold”. For the same compound, the “disease symptoms of leaves” value in assay [1] (Col-0, 10 ml of 1 mM NHP via soil 24 h prior to Psm lux) is reported as “largely symptom-free”. In addition, the “reduction of bacterial numbers in Psm lux-inoculated 1° leaves” value in assay [1] (Col-0, foliar spray of 1 mM NHP with 0.005% Silwet 24 h before inoculation, 54 h post inoculation) was “about 12 fold”. Further, in assay [1] (Col-0 wild-type (experiment with sid2), 10 μmol via soil, 60 hpi), the “difference in bacterial numbers between control and treated plants” value is “ten-fold difference”. For the same compound, in assay [1] (SA-deficient sid2 mutant, 10 μmol via soil, 60 hpi), the “bacterial numbers in leaves lower than those of naive plants” value is reported as “about 2.5 fold”. In assay [2] (Col-0, ald1, and fmo1, 10 μmol via soil), the “symptomology of leaves (photographs)” value is “completely symptom-free”. Also, the development of oospores entry in assay [2] (Col-0, 10 μmol via soil, 7 dpi) is given as “completely inhibited”. For the same compound, the “examined leaves that fully prohibited the formation of intercellular hyphae” value in assay [2] (Col-0, 10 μmol via soil, 7 dpi) is listed as “About 70%”. In addition, in assay [2] (Col-0, 10 μmol via soil, 7 dpi), the macroscopic mildew symptoms result is “completely free of mildew symptoms”. The “occurrence/development of conidiophores on leaves” value in assay [2] (Col-0, 10 μmol via soil, 7 dpi) is reported as “completely inhibited”. Also, the “disease development in the SA-deficient mutant” value in assay [2] (10 μmol via soil) is given as “not able to fully prevent disease development”. In assay [3], the “disease symptoms (yellowing and wilting) of infiltrated 1° leaves” value was “almost absent”.

As for `O=C(O)[C@@H]1CCCCN1` [Pip, (S)-piperidine-2-carboxylic acid], the “bacterial multiplication in leaves of treated compared with control plants” value in assay [1] (Col-0 and ald1, 10 μmol via soil 1 d before Psm lux, 60 hpi) was “ten-fold lower”. Besides, in assay [1] (Col-0 and ald1, 10 μmol via soil, 72 hpi), the chlorotic leaf symptoms entry is listed as “suppression of the development of chlorotic leaf symptoms”. Besides, the “average length of intercellular hyphae growing inside leaves” value in assay [2] (Col-0, 10 μmol via soil 24 h before Hpa, 7 dpi) was “about 50 mm cm^−2”. In assay [2] (Col-0, 10 μmol via soil, 7 dpi), the development of oospores result is “fully prevented”, the “intercellular hyphae closely encased by dead host cells (trailing necrosis)” value is reported as “about 60%”, the “length of intercellular hyphae as share of the value for non-pretreated Col-0 plants” value is roughly 10% and the macroscopic mildew symptoms result is recorded as “largely symptom-free”. Moreover, the “occurrence/development of conidiophores on leaves” value in assay [2] (Col-0, 10 μmol via soil, 7 dpi) is reported as “greatly diminished”. For the same compound, the “symptomology of leaves (photographs)” value in assay [2] (Col-0 and ald1, 10 μmol via soil) was “only sporadically show small areas of visible mildew symptoms”. In addition, the “effect on the resistance of fmo1 to Hpa” value in assay [2] (fmo1 mutant, 10 μmol via soil) is recorded as “no effect”. Also, in assay [2] (10 μmol via soil), the “disease development in the SA-deficient mutant” value is “not able to fully prevent disease development”. Moreover, in assay [3], the “disease symptoms (yellowing and wilting) of infiltrated 1° leaves” value is reported as “severely reduced”.
